Data from the supplement of paper PMC13207355.
Counter-ions that a name gives are not always drawn.

How the values were obtained:
Details in all cases: exposure time: 72 h
E31 [1] = patient-derived glioblastoma stem cells of proneural subtype; experiment: phenotypic distance (Euclidean, principal components) from DMSO controls (arbitrary units); higher = stronger morphological change
E34 [2] = patient-derived glioblastoma stem cells of proneural subtype; experiment: as above
E13 [3] = patient-derived glioblastoma stem cells of classical subtype; experiment: as above
E28 [4] = patient-derived glioblastoma stem cells of classical subtype; experiment: as above
E21 [5] = patient-derived glioblastoma stem cells of mesenchymal subtype; experiment: as above
FT3469 [6] = normal neural stem cell line; experiment: as above
E57 [7] = patient-derived glioblastoma stem cells of mesenchymal subtype; experiment: as above
E31 [8] = experiment: surviving fraction (nuclei count normalised to DMSO); higher = more cells surviving (less toxic)
E34 [9] = experiment: as above
E13 [10] = experiment: as above
E28 [11] = experiment: as above
E21 [12] = experiment: as above
FT3469 [13] = experiment: as above
E57 [14] = experiment: as above
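Throughout, for phenotypic distance (Euclidean, principal components) from DMSO controls: cell Painting imaging in 384-well plates, CellProfiler features reduced to at least 20 principal components, Euclidean distance versus same-plate DMSO vehicle wells (0.1% v/v), median over six images per well.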
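Throughout, for surviving fraction (nuclei count normalised to DMSO): nuclei counted by high-content imaging of Hoechst-stained cells in laminin-coated 384-well plates, relative to 0.1% DMSO vehicle wells, with staurosporine as cell-death control.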

CN(C)C(=O)Oc1ccc[n+](C)c1 [Pyridostigmine iodide]
Details | phenotypic distance | surviving fraction
E13 [3], 4.1 nM | 0.653 | –
E13 [3], 12.3 nM | 0.436 | –
E13 [3], 37 nM | 0.527 | –
E13 [3], 111.1 nM | 0.34 | –
E13 [3], 333.3 nM | 0.667 | –
E13 [3], 1000 nM | 0.894 | –
E13 [3], 3000 nM | 1.1 | –
E13 [10], 4.1 nM | – | 1.02
E13 [10], 12.3 nM | – | 1.15
E13 [10], 37 nM | – | 1.04
E13 [10], 111.1 nM | – | 0.975
E13 [10], 333.3 nM | – | 1.06
E13 [10], 1000 nM | – | 1.03
E13 [10], 3000 nM | – | 0.989
E21 [5], 4.1 nM | 0.939 | –
E21 [5], 12.3 nM | 0.565 | –
E21 [5], 37 nM | 0.637 | –
E21 [5], 111.1 nM | 0.901 | –
E21 [5], 333.3 nM | 3.46 | –
E21 [5], 1000 nM | 1.09 | –
E21 [5], 3000 nM | 1.02 | –
E21 [12], 4.1 nM | – | 0.969
E21 [12], 12.3 nM | – | 1.03
E21 [12], 37 nM | – | 1.08
E21 [12], 111.1 nM | – | 0.887
E21 [12], 333.3 nM | – | 0.981
E21 [12], 1000 nM | – | 0.99
E21 [12], 3000 nM | – | 1.04
E28 [4], 4.1 nM | 0.458 | –
E28 [4], 12.3 nM | 0.757 | –
E28 [4], 37 nM | 0.73 | –
E28 [4], 111.1 nM | 0.63 | –
E28 [4], 333.3 nM | 0.567 | –
E28 [4], 1000 nM | 0.651 | –
E28 [4], 3000 nM | 0.684 | –
E28 [11], 4.1 nM | – | 1.07
E28 [11], 12.3 nM | – | 0.975
E28 [11], 37 nM | – | 1.02
E28 [11], 111.1 nM | – | 1.05
E28 [11], 333.3 nM | – | 0.949
E28 [11], 1000 nM | – | 1.18
E28 [11], 3000 nM | – | 0.96
E31 [1], 4.1 nM | 0.409 | –
E31 [1], 12.3 nM | 0.507 | –
E31 [1], 37 nM | 0.601 | –
E31 [1], 111.1 nM | 0.878 | –
E31 [1], 333.3 nM | 0.996 | –
E31 [1], 1000 nM | 2.91 | –
E31 [1], 3000 nM | 0.798 | –
E31 [8], 4.1 nM | – | 0.967
E31 [8], 12.3 nM | – | 1.05
E31 [8], 37 nM | – | 0.914
E31 [8], 111.1 nM | – | 1.02
E31 [8], 333.3 nM | – | 1.07
E31 [8], 1000 nM | – | 0.944
E31 [8], 3000 nM | – | 0.851
E34 [2], 4.1 nM | 0.578 | –
E34 [2], 12.3 nM | 0.331 | –
E34 [2], 37 nM | 1.86 | –
E34 [2], 111.1 nM | 0.616 | –
E34 [2], 333.3 nM | 0.79 | –
E34 [2], 1000 nM | 0.731 | –
E34 [2], 3000 nM | 0.846 | –
E34 [9], 4.1 nM | – | 1.17
E34 [9], 12.3 nM | – | 0.894
E34 [9], 37 nM | – | 1.01
E34 [9], 111.1 nM | – | 0.914
E34 [9], 333.3 nM | – | 0.904
E34 [9], 1000 nM | – | 1.05
E34 [9], 3000 nM | – | 1.24
E57 [7], 4.1 nM | 0.948 | –
E57 [7], 12.3 nM | 0.52 | –
E57 [7], 37 nM | 0.595 | –
E57 [7], 111.1 nM | 0.71 | –
E57 [7], 333.3 nM | 0.854 | –
E57 [7], 1000 nM | 0.982 | –
E57 [7], 3000 nM | 0.881 | –
E57 [14], 4.1 nM | – | 1.16
E57 [14], 12.3 nM | – | 1.04
E57 [14], 37 nM | – | 0.923
E57 [14], 111.1 nM | – | 0.99
E57 [14], 333.3 nM | – | 0.98
E57 [14], 1000 nM | – | 1.01
E57 [14], 3000 nM | – | 0.937
FT3469 [6], 4.1 nM | 0.42 | –
FT3469 [6], 12.3 nM | 0.709 | –
FT3469 [6], 37 nM | 0.762 | –
FT3469 [6], 111.1 nM | 0.872 | –
FT3469 [6], 333.3 nM | 0.927 | –
FT3469 [6], 1000 nM | 0.794 | –
FT3469 [6], 3000 nM | 1.39 | –
FT3469 [13], 4.1 nM | – | 1.01
FT3469 [13], 12.3 nM | – | 1.12
FT3469 [13], 37 nM | – | 1.2
FT3469 [13], 111.1 nM | – | 1.07
FT3469 [13], 333.3 nM | – | 1.12
FT3469 [13], 1000 nM | – | 1.06
FT3469 [13], 3000 nM | – | 1.15

Cc1ncc(CO)c(CO)c1O [Pyridoxine hydrochloride]
Details | phenotypic distance | surviving fraction
E13 [3], 4.1 nM | 1.83 | –
E13 [3], 12.3 nM | 0.627 | –
E13 [3], 37 nM | 0.476 | –
E13 [3], 111.1 nM | 0.757 | –
E13 [3], 333.3 nM | 0.677 | –
E13 [3], 1000 nM | 0.715 | –
E13 [3], 3000 nM | 1.55 | –
E13 [10], 4.1 nM | – | 0.907
E13 [10], 12.3 nM | – | 0.973
E13 [10], 37 nM | – | 0.968
E13 [10], 111.1 nM | – | 1.04
E13 [10], 333.3 nM | – | 1.02
E13 [10], 1000 nM | – | 0.905
E13 [10], 3000 nM | – | 1.08
E21 [5], 4.1 nM | 0.627 | –
E21 [5], 12.3 nM | 0.496 | –
E21 [5], 37 nM | 0.428 | –
E21 [5], 111.1 nM | 0.899 | –
E21 [5], 333.3 nM | 0.724 | –
E21 [5], 1000 nM | 0.617 | –
E21 [5], 3000 nM | 0.536 | –
E21 [12], 4.1 nM | – | 0.9
E21 [12], 12.3 nM | – | 1.04
E21 [12], 37 nM | – | 1.02
E21 [12], 111.1 nM | – | 1.03
E21 [12], 333.3 nM | – | 0.92
E21 [12], 1000 nM | – | 1.06
E21 [12], 3000 nM | – | 1.03
E28 [4], 4.1 nM | 0.428 | –
E28 [4], 12.3 nM | 0.769 | –
E28 [4], 37 nM | 0.765 | –
E28 [4], 111.1 nM | 0.622 | –
E28 [4], 333.3 nM | 0.82 | –
E28 [4], 1000 nM | 1.01 | –
E28 [4], 3000 nM | 0.741 | –
E28 [11], 4.1 nM | – | 0.967
E28 [11], 12.3 nM | – | 1.04
E28 [11], 37 nM | – | 0.991
E28 [11], 111.1 nM | – | 0.922
E28 [11], 333.3 nM | – | 0.975
E28 [11], 1000 nM | – | 0.968
E28 [11], 3000 nM | – | 1.09
E31 [1], 4.1 nM | 1.57 | –
E31 [1], 12.3 nM | 0.82 | –
E31 [1], 37 nM | 0.958 | –
E31 [1], 111.1 nM | 1.06 | –
E31 [1], 333.3 nM | 0.654 | –
E31 [1], 1000 nM | 0.523 | –
E31 [1], 3000 nM | 0.738 | –
E31 [8], 4.1 nM | – | 0.944
E31 [8], 12.3 nM | – | 1.04
E31 [8], 37 nM | – | 1.03
E31 [8], 111.1 nM | – | 1.1
E31 [8], 333.3 nM | – | 1.03
E31 [8], 1000 nM | – | 1.01
E31 [8], 3000 nM | – | 0.903
E34 [2], 4.1 nM | 1.15 | –
E34 [2], 12.3 nM | 0.917 | –
E34 [2], 37 nM | 0.991 | –
E34 [2], 111.1 nM | 1.16 | –
E34 [2], 333.3 nM | 0.742 | –
E34 [2], 1000 nM | 0.612 | –
E34 [2], 3000 nM | 0.936 | –
E34 [9], 4.1 nM | – | 0.949
E34 [9], 12.3 nM | – | 0.918
E34 [9], 37 nM | – | 1.19
E34 [9], 111.1 nM | – | 1.07
E34 [9], 333.3 nM | – | 0.943
E34 [9], 1000 nM | – | 0.916
E34 [9], 3000 nM | – | 1.06
E57 [7], 4.1 nM | 1.25 | –
E57 [7], 12.3 nM | 1.12 | –
E57 [7], 37 nM | 0.554 | –
E57 [7], 111.1 nM | 0.42 | –
E57 [7], 333.3 nM | 0.699 | –
E57 [7], 1000 nM | 0.559 | –
E57 [7], 3000 nM | 0.776 | –
E57 [14], 4.1 nM | – | 1.03
E57 [14], 12.3 nM | – | 0.99
E57 [14], 37 nM | – | 1.01
E57 [14], 111.1 nM | – | 0.965
E57 [14], 333.3 nM | – | 1.07
E57 [14], 1000 nM | – | 0.984
E57 [14], 3000 nM | – | 0.981
FT3469 [6], 4.1 nM | 0.887 | –
FT3469 [6], 12.3 nM | 0.632 | –
FT3469 [6], 37 nM | 0.988 | –
FT3469 [6], 111.1 nM | 0.539 | –
FT3469 [6], 333.3 nM | 4.03 | –
FT3469 [6], 1000 nM | 0.686 | –
FT3469 [6], 3000 nM | 0.525 | –
FT3469 [13], 4.1 nM | – | 0.987
FT3469 [13], 12.3 nM | – | 0.951
FT3469 [13], 37 nM | – | 0.972
FT3469 [13], 111.1 nM | – | 0.985
FT3469 [13], 333.3 nM | – | 1.05
FT3469 [13], 1000 nM | – | 1.09
FT3469 [13], 3000 nM | – | 0.987
